# Assay results published in PMC6984391, “Anion carriers as potential treatments for cystic fibrosis: transport in cystic fibrosis cells, and additivity to channel-targeting drugs” (Chemical Science, 2019).
# What was measured:
# WT-CFTR-YFP-FRT cells = experiment: Anionophore anion transport in WT-CFTR-YFP-FRT cells; format: cell-based, Fischer rat; conditions: anionophore 50 μM, CFTRinh-172 10 μM
# Excerpt: Next, we sought to learn whether the activities of 11, 12, 15, and 19 are additive to that of CFTR. For these studies, we used FRT cells co-expressing wild-type human CFTR and YFP-H148Q/I152L (WT-CFTR-YFP-FRT cells).[28] […] This latter effect is difficult to explain and merits further investigation.
# (§1) FRT cells stably expressing the halide sensor YFP-H148Q/I152L6 were generous gifts of AS Verkman (University of California, San Francisco), while CFBE41o- cells7 stably expressing YFP (YFP-CFBE cells) were a generous gift of LJV Galietta (Telethon Institute for Genetics and Medicine). YFP-FRT cells were cultured as described previously for FRT cells8 except that media contained 10% fetal bovine serum, 2 mM L-glutamine and the selection agent G418 (YFP-FRT cells, 0.5 mg ml-1; WT-CFTR-YFP-FRT cells, 0.75 mg ml-1) or zeocin (F508del-CFTR-YFP-FRT cells, 0.5 mg ml-1). YFP-CFBE cells were cultured in minimal essential medium (MEM) supplemented with 10% fetal bovine serum, 2 mM L-glutamine, 100 U ml-1 penicillin and 100 mg ml-1 streptomycin. […]
# (§2) Fluorescence plate reader assay […]
# quenching of YFP fluorescence at 37 °C using a microplate reader following the method of Galietta et al..9 The microplate reader (model: FLUORstar Omega; BMG LABTECH Ltd., Aylesbury, UK) was equipped with a syringe pump and excitation (500 ± 10 nm) and emission (535 ± 15 nm) filters (Chroma Technology GmbH, Olching, Germany). […]
# (§3) the PBS bathing cells 10 minutes prior to PBS iodide addition, whereas UTP was added to cells with the PBS iodide solution. Fluorescence was measured for 14 seconds; 2 seconds before and 12 seconds after injection of 110 µl PBS iodide solution (137 mM Cl- replaced by I-) into each well (to obtain a final concentration of I- of 100 mM).
# We expressed cell fluorescence values (F) relative to the fluorescence value immediately before I- injection (F0), excluding the initial decrease, which likely represents the quenching of extracellular YFP released from cells and signal reduction accompanying the increase in solution volume bathing cells. […]
# [1] = tested on: F508del-CFTR-YFP-FRT cells; experiment: Anionophore anion transport in F508del-CFTR-YFP-FRT cells; format: cell-based, Fischer rat; conditions: for anion transport in control F508del-CFTR-YFP-FRT cells / additivity of anion transport to rescue of F508del-CFTR: 50 μM; for anion transport in control F508del-CFTR-YFP-FRT cells: cells grown at 37 °C; for additivity of anion transport to rescue of F508del-CFTR: 27 °C or lumacaftor rescue; for anion transport when added together with forskolin and ivacaftor: anionophore 50 μM, forskolin 10 μM, ivacaftor 1 μM
# Excerpt: To learn whether anionophores are additive to small molecules that rescue disease-causing CFTR variants, we used FRT cells co-expressing F508del-CFTR, the predominant CF mutation and YFP-H148Q/I152L (F508del-CFTR-YFP-FRT cells).[28] To rescue the plasma membrane expression of F508del-CFTR, we used low temperature or the clinically-licensed CFTR corrector lumacaftor,[38],[39] while to increase its activity, we used the clinically-licensed CFTR potentiator ivacaftor.[40]
# as §1, with “zeocin” for “zeocin (F508del-CFTR-YFP-FRT cells, 0.5 mg ml-1). YFP-CFBE cells were cultured in minimal essential medium (MEM) supplemented with 10% fetal bovine serum, 2 mM L-glutamine, 100 U ml-1 penicillin and 100 mg ml-1 streptomycin.”
# (F508del-CFTR-YFP-FRT cells, 0.5 mg ml-1). […]
# U ml-1 penicillin and 100 mg ml-1 streptomycin. All cells were incubated at 37 °C in a humidified atmosphere with 5% CO2.
# For fluorescence microplate reader studies, cells were seeded in 96-well plates and grown in culture media at 37 °C in a humidified atmosphere with 5% CO2 for 3 – 4 days until 90% confluent. To promote the plasma membrane expression of F508del-CFTR, prior to study F508del-YFP-FRT cells were either cultured at 27 °C for 24 h or treated with lumacaftor (3 µM) in YFP-FRT media containing 1% fetal bovine serum at 37 °C for 24 h. […]
# as §2
# quenching of YFP fluorescence at 37 °C using a microplate reader following the method of Galietta et al..9 The microplate reader (model: FLUORstar Omega; BMG LABTECH Ltd., Aylesbury, UK) was equipped with a syringe pump and excitation (500 ± 10 nm) and emission (535 ± 15 nm) filters (Chroma Technology GmbH, Olching, Germany). After washing cells twice with PBS (composition (mM): 137 NaCl, 2.7 KCl, 8.1 Na2HPO4, 1.5 KH2PO4, 1 CaCl2 and 0.5 MgCl2, pH 7.40), cells were incubated with test anionophores (1 – 50 µM) or the vehicle (DMSO [0.1 – 0.5% v v-1]) in 40 µl of PBS for 10 – 120 minutes according to the experimental design. Other compounds, including forskolin, ivacaftor and channel inhibitors were added to […]
# as §3
# We expressed cell fluorescence values (F) relative to the fluorescence value immediately before I- injection (F0), excluding the initial decrease, which likely represents the quenching of extracellular YFP released from cells and signal reduction accompanying the increase in solution volume bathing cells. To quantify anion transport by test anionophores, we determined the initial slope of the fluorescence decay following I - addition by fitting first order exponential functions to the last 12 seconds of each fluorescence recording. In each experim ent, n values represent the mean of two replicates and all treatments were tested at least three times using different microplates. […]
# FRT cells was selected and the cells were perfused with (i) PBS for 5 minutes then (ii) PBS containing I- (10 mM) (made by preparing PBS with 127 mM NaCl to maintain osmolarity) for 5 minutes and finally (iii) PBS for 30 minutes to remove thoroughly I- from the perfusion chamber. YFP-FRT cells were repeatedly treated with I- (10 mM) and then washed with PBS […]
# During all interventions, the rate of solution perfusion was 8 – 10 ml min-1; temperature was 37 °C and except for the first 15 minutes of PBS washing, no data were collected between cycles of I- perfusion and PBS […]
# For cell fluorescence measurements, we used the Volocity (Improvision) data […]
Compound,effect of CFTRinh-172 on anion transport by anionophore (WT-CFTR-YFP-FRT cells),anion transport in control F508del-CFTR-YFP-FRT cells [1],additivity of anion transport to rescue of F508del-CFTR [1],anion transport when added together with forskolin and ivacaftor [1]
CCOC(=O)[C@]12CC[C@@H](NC(=S)Nc3ccc([N+](=O)[O-])cc3)C[C@@H]1C[C@@H](NC(=S)Nc1ccc([N+](=O)[O-])cc1)CC2 [Compound 12],without effect,mediated anion transport,additive,increased further the amount of anion transport
CCOC(=O)[C@]12CC[C@@H](NC(=S)Nc3cc(C(F)(F)F)cc(C(F)(F)F)c3)C[C@@H]1C[C@@H](NC(=S)Nc1cc(C(F)(F)F)cc(C(F)(F)F)c1)CC2 [Compound 15],"small, albeit significant, increase",mediated anion transport,additive,increased further the amount of anion transport
FC(F)(F)c1cc(NC(=S)NCCN(CCNC(=S)Nc2cc(C(F)(F)F)cc(C(F)(F)F)c2)CCNC(=S)Nc2cc(C(F)(F)F)cc(C(F)(F)F)c2)cc(C(F)(F)F)c1 [Compound 19],inhibited the activity,mediated anion transport,additive,increased further the amount of anion transport
